Assay results: patent US20230310428A1, “EGFR INHIBITOR AND PREPARATION METHOD AND USE THEREOF” (HONGYUN BIOTECH CO., LTD., priority 2020, published 2023)
Where two headings read alike, the source gives them in different places.

What was measured:
Experiment in all cases: Growth inhibitory activity of compounds on BaF3 cell lines stably transfected with kinase (MTS, 48 h)
Format in all cases: cell-based
[1] = target: T1, various mutants of kinase EGFR (BaF3 cell lines stably transfected with kinase) (Homo sapiens, UniProt P00533)
T1 construct: other: BaF3 cells stably transfected with EGFR Δ19Del; MTS, 48 h; other: BaF3 cell line stably transfected with EGFR Δ19Del
T1 sequence (P00533 with tags, fused parts or gaps DEL746-750): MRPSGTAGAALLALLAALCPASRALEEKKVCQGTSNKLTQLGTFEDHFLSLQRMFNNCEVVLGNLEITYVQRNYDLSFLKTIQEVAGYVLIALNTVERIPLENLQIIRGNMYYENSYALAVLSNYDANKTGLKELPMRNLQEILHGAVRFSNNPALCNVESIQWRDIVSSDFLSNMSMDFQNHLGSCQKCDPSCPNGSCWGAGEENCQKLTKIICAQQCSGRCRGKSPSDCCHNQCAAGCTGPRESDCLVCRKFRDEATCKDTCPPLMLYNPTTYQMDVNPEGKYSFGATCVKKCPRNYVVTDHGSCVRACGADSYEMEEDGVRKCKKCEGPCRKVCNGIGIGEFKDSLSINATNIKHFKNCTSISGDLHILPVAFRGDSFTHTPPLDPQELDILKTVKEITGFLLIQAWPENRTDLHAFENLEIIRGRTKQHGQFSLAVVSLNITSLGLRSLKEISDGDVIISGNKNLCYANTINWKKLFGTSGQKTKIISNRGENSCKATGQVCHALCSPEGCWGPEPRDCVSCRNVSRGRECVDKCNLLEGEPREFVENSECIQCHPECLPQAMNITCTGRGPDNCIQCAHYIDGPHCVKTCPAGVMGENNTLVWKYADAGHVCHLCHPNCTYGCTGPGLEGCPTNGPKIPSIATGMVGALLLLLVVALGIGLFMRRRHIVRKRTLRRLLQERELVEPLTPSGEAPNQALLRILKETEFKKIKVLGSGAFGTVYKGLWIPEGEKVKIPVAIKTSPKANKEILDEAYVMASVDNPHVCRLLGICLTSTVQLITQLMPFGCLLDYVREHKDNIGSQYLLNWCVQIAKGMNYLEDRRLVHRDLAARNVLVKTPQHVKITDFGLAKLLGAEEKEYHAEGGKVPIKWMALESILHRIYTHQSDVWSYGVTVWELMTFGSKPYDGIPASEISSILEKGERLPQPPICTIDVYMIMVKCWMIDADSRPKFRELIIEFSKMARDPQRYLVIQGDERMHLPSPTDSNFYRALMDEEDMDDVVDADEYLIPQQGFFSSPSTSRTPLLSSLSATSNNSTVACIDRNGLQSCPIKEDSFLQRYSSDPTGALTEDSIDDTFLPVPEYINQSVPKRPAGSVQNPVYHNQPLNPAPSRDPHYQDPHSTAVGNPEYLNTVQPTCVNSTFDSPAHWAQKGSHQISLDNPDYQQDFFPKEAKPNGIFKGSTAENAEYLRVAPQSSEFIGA
Experimental: (§1) The activity of compounds against various mutants of kinase EGFR was evaluated by their effect of inhibiting growth of BaF3 cell lines stably transfected with kinase. The specific test method was given as follows:
(§2) 1) Culture medium: DMEM (Dulbecco’s modified eagle medium) or RPMI 1640 (containing 10% fetal bovine serum, 100 µg/mL ampicillin, 100 µg/mL streptomycin).
(§3) 2) Reagent: MTS reaction solution (containing 2 mg/mL of MTS [3-(4,5-dimethylthiazol-2-yl)-5-(3-carboxymethoxyphenyl)-2-(4-sulfophenyl)-2H-tetrazoliu m, inner Salt]; 100 µg/mL of PES ([…])).
(§4) 3) Compound test: cells were incubated into a 96-well culture plate, the volume of cytosol was 90 µL, and then 10 µL of the compound at each gradient concentration was added. That is, the highest concentration was 10 µM, which was diluted stepwise by ⅓, and 8 concentration points were set in total; 0.1% DMSO (dimethyl sulfoxide) was contained in the system. The cell plate with uniformly mixed compound was cultured in a cell culture incubator (37° C.; 5% CO2) for 48 h, then 20 µL of MTS reaction solution was added, uniformly mixed and incubated in the cell culture incubator (37° C.; 5% CO2) for 1-4 h. OD values at 490 nm were measured by a microplate reader (VARIOSKAN FLASH, Thermo). Two parallels were set in each group of experiments, with 0.1% (a final concentration) DMSO as a negative control, and a culture medium without cells and compounds as a blank control. The cell growth inhibition rate was calculated by the following formula: […]
(§5) 4) IC50 calculation: The semi-inhibitory concentration of the compounds acting on cells was calculated using GradPad Prism 5 software according to the measured cell growth inhibition rate.

[2] = target: T2, various mutants of kinase EGFR (BaF3 cell lines stably transfected with kinase) (Homo sapiens, UniProt P00533, T790M, form not given)
T2 construct: other: BaF3 cells stably transfected with EGFR Δ19Del/T790M; MTS, 48 h; other: BaF3 cell line stably transfected with EGFR Δ19Del/T790M; MTS, 48
T2 sequence (P00533 with tags, fused parts or gaps DEL746-750/T790M, form open): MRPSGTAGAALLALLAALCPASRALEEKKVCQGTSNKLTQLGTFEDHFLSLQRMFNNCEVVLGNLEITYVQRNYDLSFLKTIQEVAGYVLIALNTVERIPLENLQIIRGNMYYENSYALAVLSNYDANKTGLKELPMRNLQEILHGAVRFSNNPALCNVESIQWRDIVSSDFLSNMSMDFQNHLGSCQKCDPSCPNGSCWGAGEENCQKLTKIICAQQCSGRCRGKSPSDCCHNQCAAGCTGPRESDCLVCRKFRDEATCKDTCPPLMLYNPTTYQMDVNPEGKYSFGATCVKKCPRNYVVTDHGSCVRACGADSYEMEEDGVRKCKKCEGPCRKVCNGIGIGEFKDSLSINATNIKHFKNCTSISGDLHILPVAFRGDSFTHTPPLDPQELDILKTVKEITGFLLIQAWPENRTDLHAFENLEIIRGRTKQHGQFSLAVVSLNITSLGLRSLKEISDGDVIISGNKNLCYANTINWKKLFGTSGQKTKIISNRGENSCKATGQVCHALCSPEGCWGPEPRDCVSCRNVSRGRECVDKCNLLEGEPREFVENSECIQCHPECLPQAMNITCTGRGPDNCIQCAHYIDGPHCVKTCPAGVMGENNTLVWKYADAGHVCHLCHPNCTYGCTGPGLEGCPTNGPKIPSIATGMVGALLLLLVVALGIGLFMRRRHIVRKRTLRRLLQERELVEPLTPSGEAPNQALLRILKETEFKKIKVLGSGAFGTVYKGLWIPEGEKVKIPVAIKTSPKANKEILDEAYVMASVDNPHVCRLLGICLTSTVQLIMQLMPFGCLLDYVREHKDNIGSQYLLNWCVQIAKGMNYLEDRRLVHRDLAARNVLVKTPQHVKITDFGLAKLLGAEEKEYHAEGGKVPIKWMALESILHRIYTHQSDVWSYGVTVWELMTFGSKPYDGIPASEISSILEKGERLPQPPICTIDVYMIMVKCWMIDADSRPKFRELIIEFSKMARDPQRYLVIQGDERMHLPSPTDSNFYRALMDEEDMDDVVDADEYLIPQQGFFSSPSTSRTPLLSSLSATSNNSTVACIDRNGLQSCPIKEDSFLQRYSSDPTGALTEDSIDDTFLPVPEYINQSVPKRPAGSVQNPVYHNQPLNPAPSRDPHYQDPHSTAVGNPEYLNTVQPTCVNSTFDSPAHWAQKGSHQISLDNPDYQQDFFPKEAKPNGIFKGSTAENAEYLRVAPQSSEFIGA
Experimental: as §1, §2, §3, §4, §5

[3] = target: T3, various mutants of kinase EGFR (BaF3 cell lines stably transfected with kinase) (Homo sapiens, UniProt P00533, C797S/L858R/T790M)
T3 construct: expressed in transfected cells; host or cells: BaF3
Experimental: as §1, §2, §3, §4, §5

[4] = target: T4, various mutants of kinase EGFR (BaF3 cell lines stably transfected with kinase) (Homo sapiens, UniProt P00533, T790M/C797S, form not given)
T4 construct: other: BaF3 cells stably transfected with EGFR Δ19Del/T790M/C797S; MTS, 48; other: BaF3 cell line stably transfected with EGFR Δ19Del/T790M/C7
Experimental: as §1, §2, §3, §4, §5

[5] = target: T5, various mutants of kinase EGFR (BaF3 cell lines stably transfected with kinase) (Homo sapiens, UniProt P00533, L858R/T790M)
T5 construct: expressed in transfected cells; host or cells: BaF3
T5 sequence (P00533 25-1210 T790M/L858R): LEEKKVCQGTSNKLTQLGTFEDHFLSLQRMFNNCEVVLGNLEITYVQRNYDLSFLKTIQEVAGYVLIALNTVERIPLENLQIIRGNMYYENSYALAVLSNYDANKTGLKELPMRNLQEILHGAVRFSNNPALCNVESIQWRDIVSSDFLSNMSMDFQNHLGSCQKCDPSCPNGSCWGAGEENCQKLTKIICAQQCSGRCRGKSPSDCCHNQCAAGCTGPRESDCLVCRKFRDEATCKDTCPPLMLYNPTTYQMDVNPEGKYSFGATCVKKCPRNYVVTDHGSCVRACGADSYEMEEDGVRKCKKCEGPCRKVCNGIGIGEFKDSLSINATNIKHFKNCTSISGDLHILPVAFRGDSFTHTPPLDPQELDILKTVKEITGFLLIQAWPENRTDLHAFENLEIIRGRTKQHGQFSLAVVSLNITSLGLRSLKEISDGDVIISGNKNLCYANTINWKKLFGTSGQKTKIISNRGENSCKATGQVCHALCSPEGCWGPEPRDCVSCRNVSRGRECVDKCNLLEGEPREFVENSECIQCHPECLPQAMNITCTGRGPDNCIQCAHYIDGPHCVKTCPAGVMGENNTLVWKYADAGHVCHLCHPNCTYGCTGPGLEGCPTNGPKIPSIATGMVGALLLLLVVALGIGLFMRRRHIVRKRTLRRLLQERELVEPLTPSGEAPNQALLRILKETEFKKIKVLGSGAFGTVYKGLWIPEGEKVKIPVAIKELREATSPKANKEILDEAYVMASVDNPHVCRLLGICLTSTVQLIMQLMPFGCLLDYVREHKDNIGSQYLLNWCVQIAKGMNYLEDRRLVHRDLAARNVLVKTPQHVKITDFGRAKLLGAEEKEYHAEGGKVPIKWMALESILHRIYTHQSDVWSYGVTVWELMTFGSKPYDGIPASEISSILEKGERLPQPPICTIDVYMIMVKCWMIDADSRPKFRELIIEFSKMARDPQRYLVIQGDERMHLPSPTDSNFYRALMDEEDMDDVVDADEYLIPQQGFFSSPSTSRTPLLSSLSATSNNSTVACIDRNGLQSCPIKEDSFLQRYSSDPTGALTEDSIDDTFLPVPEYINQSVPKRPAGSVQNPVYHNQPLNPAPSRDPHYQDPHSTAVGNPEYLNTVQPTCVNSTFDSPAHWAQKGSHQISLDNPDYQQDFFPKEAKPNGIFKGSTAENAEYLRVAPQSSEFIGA
Experimental: as §1, §2, §3, §4, §5

[6] = target: T6, various mutants of kinase EGFR (BaF3 cell lines stably transfected with kinase) (Homo sapiens, UniProt P00533, L858R)
T6 construct: expressed in transfected cells; host or cells: BaF3
T6 sequence (P00533 25-1210 L858R): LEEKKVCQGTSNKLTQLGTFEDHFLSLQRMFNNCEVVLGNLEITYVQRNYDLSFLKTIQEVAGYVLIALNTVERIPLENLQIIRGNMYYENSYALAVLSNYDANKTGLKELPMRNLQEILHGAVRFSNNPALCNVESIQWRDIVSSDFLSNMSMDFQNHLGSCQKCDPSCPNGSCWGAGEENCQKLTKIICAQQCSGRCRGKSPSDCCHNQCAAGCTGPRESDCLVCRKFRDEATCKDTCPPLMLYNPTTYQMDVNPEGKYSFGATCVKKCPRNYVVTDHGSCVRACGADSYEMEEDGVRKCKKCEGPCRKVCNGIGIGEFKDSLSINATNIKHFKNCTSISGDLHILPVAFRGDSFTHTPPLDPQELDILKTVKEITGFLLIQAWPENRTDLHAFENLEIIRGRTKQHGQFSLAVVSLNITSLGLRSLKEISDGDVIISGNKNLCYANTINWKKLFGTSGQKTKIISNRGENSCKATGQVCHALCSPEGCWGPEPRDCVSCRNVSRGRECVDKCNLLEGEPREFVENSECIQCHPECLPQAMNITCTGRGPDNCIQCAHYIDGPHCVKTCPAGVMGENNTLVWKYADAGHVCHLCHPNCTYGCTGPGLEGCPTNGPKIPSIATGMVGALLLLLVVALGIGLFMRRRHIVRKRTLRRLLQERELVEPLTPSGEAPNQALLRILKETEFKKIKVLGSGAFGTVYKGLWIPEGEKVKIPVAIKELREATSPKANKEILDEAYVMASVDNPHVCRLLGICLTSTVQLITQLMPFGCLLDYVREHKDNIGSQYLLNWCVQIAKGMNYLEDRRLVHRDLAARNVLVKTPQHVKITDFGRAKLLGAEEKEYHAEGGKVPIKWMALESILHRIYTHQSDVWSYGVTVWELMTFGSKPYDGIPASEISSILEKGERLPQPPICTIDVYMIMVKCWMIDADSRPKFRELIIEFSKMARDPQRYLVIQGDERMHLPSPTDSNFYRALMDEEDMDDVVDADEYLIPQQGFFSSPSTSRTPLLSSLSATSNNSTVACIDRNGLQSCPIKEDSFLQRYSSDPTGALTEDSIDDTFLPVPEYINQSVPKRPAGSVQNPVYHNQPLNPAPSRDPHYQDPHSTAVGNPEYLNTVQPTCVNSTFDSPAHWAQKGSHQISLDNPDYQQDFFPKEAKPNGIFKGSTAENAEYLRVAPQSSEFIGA
Experimental: as §1, §2, §3, §4, §5

[7] = BaF3 cell line stably transfected with EGFR Δ19Del, read-out: Δ19Del growth inhibitory activity IC50
[8] = BaF3 cell line stably transfected with EGFR Δ19Del/T790M, read-out: Δ19Del/ T790M growth inhibitory activity IC50
[9] = BaF3 cell line stably transfected with EGFR L858R/T790M/C797S, read-out: L858R/T790M/ C797S growth inhibitory activity IC50
[10] = BaF3 cell line stably transfected with EGFR Δ19Del/T790M/C797S, read-out: Δ19Del/T790M/ C797S growth inhibitory activity IC50
[11] = BaF3 cell line stably transfected with EGFR L858R/T790M, read-out: L858R/ T790M growth inhibitory activity IC50
[12] = BaF3 cell line stably transfected with EGFR L858R, read-out: L858R growth inhibitory activity IC50
[13] = BaF3 cells stably transfected with EGFR Δ19Del, read-out: IC50, growth inhibition, Δ19Del
[14] = BaF3 cells stably transfected with EGFR Δ19Del/T790M, read-out: IC50, growth inhibition, Δ19Del/T790M
[15] = BaF3 cells stably transfected with EGFR L858R/T790M/C797S, read-out: IC50, growth inhibition, L858R/T790M/C797S
[16] = BaF3 cells stably transfected with EGFR Δ19Del/T790M/C797S, read-out: IC50, growth inhibition, Δ19Del/T790M/C797S
[17] = BaF3 cells stably transfected with EGFR L858R/T790M, read-out: IC50, growth inhibition, L858R/T790M
[18] = BaF3 cells stably transfected with EGFR L858R, read-out: IC50, growth inhibition, L858R

| IC50 [1, 7] | IC50 [2, 8] | IC50 [3, 9] | IC50 [4, 10] | IC50 [5, 11] | IC50 [6, 12] | IC50 [1, 13] | IC50 [2, 14] | IC50 [3, 15] | IC50 [4, 16] | IC50 [5, 17] | IC50 [6, 18] | Structure (SMILES) |
| --- | --- | --- | --- | --- | --- | --- | --- | --- | --- | --- | --- | --- |
| 50 to 500 nM | 50 to 500 nM | 50 to 500 nM | 50 to 500 nM | ≤ 50 nM | 50 to 500 nM |  |  |  |  |  |  | COc1nc(N2CCC(N3CCN(C)CC3)CC2)ccc1Nc1ncc(Br)c(Nc2ccc3nccnc3c2N(C2CC2)S(C)(=O)=O)n1 [Compound I-305] |
|  |  |  |  |  |  | 50 to 500 nM | 50 to 500 nM | 50 to 500 nM | 500 to 2500 nM | 50 to 500 nM | 50 to 500 nM | CCN(c1c(Nc2nc(Nc3ccc(N4CCC(N5CCN(C)CC5)CC4)nc3OC)ncc2Br)ccc2nccnc12)S(C)(=O)=O [Compound I-296] |
| 500 to 2500 nM | 50 to 500 nM | 50 to 500 nM | ≤ 50 nM | 50 to 500 nM | 500 to 2500 nM |  |  |  |  |  |  | CCc1cc(Nc2nc(Nc3ccc4nccnc4c3N(C)S(C)(=O)=O)c3occc3n2)c(OC)nc1N1CCC(N2CCN(C)CC2)CC1 [II-1-39] |
| 50 to 500 nM | 50 to 500 nM | 50 to 500 nM | ≤ 50 nM | ≤ 50 nM | ≤ 50 nM |  |  |  |  |  |  | CN1CCN(C2CCN(c3ccc(Nc4ncc(Cl)c(Nc5ccc6nccnc6c5N(C)S(C)(=O)=O)n4)c(F)c3F)CC2)CC1 [Compound I-356] |
| ≤ 50 nM | ≤ 50 nM | ≤ 50 nM | 50 to 500 nM | ≤ 50 nM | ≤ 50 nM |  |  |  |  |  |  | CCc1cc(Nc2ncc(C#N)c(Nc3ccc4nccnc4c3N(C)S(C)(=O)=O)n2)ccc1N1CCC(N2CCN(C)CC2)CC1 [Compound I-346] |
|  |  |  |  |  |  | 50 to 500 nM | 50 to 500 nM | 50 to 500 nM | ≤ 50 nM | 50 to 500 nM | 50 to 500 nM | COc1cc(N2CCN(C)CC2)c(C)cc1Nc1ncc([N+](=O)[O-])c(Nc2ccc3nccnc3c2N(C)S(C)(=O)=O)n1 [Compound I-194] |

The next lines start with the compound.

| Structure (SMILES) | IC50 [1, 7] | IC50 [2, 8] | IC50 [3, 9] | IC50 [4, 10] | IC50 [5, 11] | IC50 [6, 12] | IC50 [1, 13] | IC50 [2, 14] | IC50 [3, 15] | IC50 [4, 16] | IC50 [5, 17] | IC50 [6, 18] |
| --- | --- | --- | --- | --- | --- | --- | --- | --- | --- | --- | --- | --- |
| Cc1cc(Nc2ncc(Br)c(Nc3ccc4nccnc4c3N(C)S(C)(=O)=O)n2)c(OC(C)C)cc1C1CCN(C)CC1 [Compound I-37] |  |  |  |  |  |  | 500 to 2500 nM | 50 to 500 nM | 50 to 500 nM | ≤ 50 nM | 50 to 500 nM | 500 to 2500 nM |
| CCc1cc(Nc2ncc(Br)c(Nc3ccc4nccnc4c3N(C)S(=O)(=O)CC)n2)c(OC)cc1N1CCC(N2CCN(C)CC2)CC1 [Compound I-100] |  |  |  |  |  |  | ≤ 50 nM | ≤ 50 nM | ≤ 50 nM | ≤ 50 nM | ≤ 50 nM | ≤ 50 nM |
| COc1cc(N2CCC(N3CCN(C)CC3)CC2)ccc1Nc1ncc(C#N)c(Nc2ccc3nccnc3c2N(C)S(C)(=O)=O)n1 [Compound I-27] |  |  |  |  |  |  | 500 to 2500 nM | 500 to 2500 nM | 500 to 2500 nM | 500 to 2500 nM | 500 to 2500 nM | 50 to 500 nM |
| COc1cc(N2CCC(N3CCN(C)CC3)CC2)ccc1Nc1ncc(Cl)c(Nc2ccc3nccnc3c2N(C)S(C)(=O)=O)n1 [Compound I-18] |  |  |  |  |  |  | 50 to 500 nM | 50 to 500 nM | 50 to 500 nM | 50 to 500 nM | ≤ 50 nM | 50 to 500 nM |
| COc1ccc(NC(=O)CN(C)C)cc1Nc1ncc(Br)c(Nc2ccc3nccnc3c2N(C)S(C)(=O)=O)n1 [Compound I-85] |  |  |  |  |  |  | 50 to 500 nM | 50 to 500 nM | 50 to 500 nM | 50 to 500 nM | 50 to 500 nM | 50 to 500 nM |
